Experimental data published in article PMC5681660, “Reduced hepatitis B and D viral entry using clinically applied drugs as novel inhibitors of the bile acid transporter NTCP” (Scientific Reports, 2017).
Structures can show the parent of a compound that is named as a salt. Where two headings read alike, the source gives them in different places.

Columns and labels:
human NTCP [1] = biological target: T1, human NTCP (Homo sapiens, UniProt Q14973); experiment: Screening fluorescent competitive Myrcludex B-FITC binding assay (96-well, 10 µM drug)
T1 sequence (Q14973 1-349): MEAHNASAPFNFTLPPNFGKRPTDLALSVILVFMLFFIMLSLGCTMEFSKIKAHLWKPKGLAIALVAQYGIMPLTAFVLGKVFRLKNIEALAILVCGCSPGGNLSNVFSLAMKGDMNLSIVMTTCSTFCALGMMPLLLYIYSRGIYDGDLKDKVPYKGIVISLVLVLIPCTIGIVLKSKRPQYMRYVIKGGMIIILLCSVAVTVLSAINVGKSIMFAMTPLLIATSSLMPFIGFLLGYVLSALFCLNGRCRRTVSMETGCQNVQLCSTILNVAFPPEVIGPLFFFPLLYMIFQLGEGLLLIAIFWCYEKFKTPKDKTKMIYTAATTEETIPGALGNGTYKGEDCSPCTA

human NTCP [2] = biological target: T1, human NTCP; experiment: Screening taurocholate uptake assay (96-well, [14C]taurocholate, 10 µM drug)
[3] = Prestwick library screen, Myrcludex B-FITC binding, 10 µM drug
[4] = Prestwick library screen, taurocholate uptake, 10 µM drug
[5] = ranking score beside the functional and binding assay B-scores of the screen
[6] = Prestwick library screen, 10 µM drug, B-score of Myrcludex B-FITC binding
[7] = Prestwick library screen, 10 µM drug, B-score of taurocholate uptake
[8] = combined ranking from functional and binding assay B-scores
[9] = screen, 10 µM drug, Myrcludex B-FITC binding
[10] = combined ranking from functional and binding screening assays
[11] = screen, 10 µM drug, taurocholate uptake

SMILES | B-score binding assay (human NTCP [1]; [3]) | B-score functional assay (human NTCP [2]; [4]) | Ranking score (human NTCP [2]; [5]) | B-score binding assay (human NTCP [1]; [6]) | B-score functional assay (human NTCP [2]; [7]) | Ranking score (human NTCP [2]; [8]) | B-score binding assay (human NTCP [1]; [9]) | Ranking score (human NTCP [2]; [10]) | B-score functional assay (human NTCP [2]; [11]) | also measured
CN(C)CCc1c[nH]c2ccc(Cn3cncn3)cc12 [Rizatriptan benzoate] | 3.436 | -0.205 | 781.971 |  |  |  |  |  |  | 
COc1ccc(C2CNC(=O)C2)cc1OC1CCCC1 (stereo not drawn) [Rolipram] |  |  |  | 0.265 | 0.524 | 872.569 |  |  |  | 
Cn1c([N+](=O)[O-])cnc1COC(N)=O [Ronidazole] |  |  |  |  |  |  | -0.252 | 432.42 | -0.446 | 
CCCN(CCC)CCc1cccc2c1CC(=O)N2 [Ropinirole HCl] | 2.082 | -0.072 | 825.121 |  |  |  |  |  |  | 
CC(=O)OCC(=O)NCCCOc1cccc(CN2CCCCC2)c1 [Roxatidine Acetate HCl] |  |  |  |  |  |  | 0.239 | 297.686 | -2.305 | 
OCc1cc(C(O)CNCCCCCCOCCCCc2ccccc2)ccc1O (stereo not drawn) [Salmeterol] |  |  |  |  |  |  | -0.999 | 391.804 | 0.004 | 
O=C(O)c1cn(-c2ccc(F)cc2)c2cc(N3CCNCC3)c(F)cc2c1=O [Sarafloxacin] |  |  |  |  |  |  | -0.967 | 305.771 | -0.49 | 
Clc1ccc(C(Cn2ccnc2)OCc2csc3c(Cl)cccc23)c(Cl)c1 (stereo not drawn) [Sertaconazole nitrate] | 0.814 | -0.094 | 730.855 |  |  |  |  |  |  | 
O=C1NCCN1CCN1CCC(c2cn(-c3ccc(F)cc3)c3ccc(Cl)cc23)CC1 [Sertindole] |  |  |  | 0.84 | 0.957 | 1028.08 |  |  |  | 
CN[C@H]1CC[C@@H](c2ccc(Cl)c(Cl)c2)c2ccccc21 [Sertraline] |  |  |  |  |  |  | -1.357 | 426.035 | 0.805 | 
CCCc1nn(C)c2c(=O)[nH]c(-c3cc(S(=O)(=O)N4CCN(C)CC4)ccc3OCC)nc12 [Sildenafil] | 0.383 | 0.011 | 755.751 |  |  |  |  |  |  | 
CN[C@@H]1[C@@H](O)[C@@H](O[C@@H]2[C@@H](O)[C@H](O[C@H]3OC(CN)=CC[C@H]3N)[C@@H](N)C[C@H]2N)OC[C@]1(C)O [Sisomicin sulfate] |  |  |  | 0.455 | 1.589 | 1018.48 |  |  |  | 
CC(C)NCC(O)c1ccc(NS(C)(=O)=O)cc1 (stereo not drawn) [Sotalol hydrochloride] |  |  |  | 0.649 | 0.17 | 866.77 |  |  |  | 
CC(=O)N[C@@H](CC(=O)N[C@@H](CCC(=O)O)C(=O)O)C(=O)O [Spaglumic acid] |  |  |  |  |  |  | -0.793 | 411.514 | -0.043 | 
CC(=O)S[C@@H]1CC2=CC(=O)CC[C@]2(C)[C@H]2CC[C@@]3(C)[C@@H](CC[C@@]34CCC(=O)O4)[C@H]12 [Spironolactone] | 0.972 | -0.089 | 751.977 |  |  |  |  |  |  | 
C[C@]12Cc3c[nH]nc3C[C@@H]1CC[C@@H]1[C@@H]2CC[C@@]2(C)[C@H]1CC[C@]2(C)O [Stanozolol] |  |  |  |  |  |  |  |  |  | B-score binding assay (human NTCP [1]): -2.248; B-score functional assay (human NTCP [2]): -1.951; Ranking score (human NTCP [2]): 107.121
Cc1cn([C@H]2C=C[C@@H](CO)O2)c(=O)[nH]c1=O [Stavudine] |  |  |  | 0.431 | 0.865 | 957.909 |  |  |  | 
CC1(C)[C@H](C(=O)O)N2C(=O)C[C@H]2S1(=O)=O [Sulbactam] |  |  |  |  |  |  | -1.629 | 399.332 | 1.339 | 
Nc1ccc(S(=O)(=O)Nc2ncccn2)cc1 [Sulfadiazine] |  |  |  | 1.389 | 0.878 | 1074.81 |  |  |  | 
COc1cc(NS(=O)(=O)c2ccc(N)cc2)nc(OC)n1 [Sulfadimethoxine] | -0.117 | 0.762 | 733.169 |  |  |  |  |  |  | 
COc1ncnc(NS(=O)(=O)c2ccc(N)cc2)c1OC [Sulfadoxine] |  |  |  | 0.336 | 0.522 | 887.31 |  |  |  | 
[H]/N=C(/N)NS(=O)(=O)c1ccc(N)cc1 [Sulfaguanidine] | 2.333 | -0.516 | 669.134 |  |  |  |  |  |  | 
Cc1ccnc(NS(=O)(=O)c2ccc(N)cc2)n1 [Sulfamerazine] |  |  |  | 0.205 | 1.015 | 923.898 |  |  |  | 
